US11446292B2, “Compounds and conjugates thereof” (MedImmune Limited, priority 2019, dated 2022)

System: NCI-N87 cells
Experiment: In vitro assay of warhead, cell viability by MTS
Type: cell-based
Details: Homo sapiens, 168 h, 7 days incubation, mean of three independent replicates
Method: Solid test material was dissolved in DMSO to a 2 mM stock solution, from which eight serial dilutions were made at a 1:10 ratio in DMSO and stored at −20° C. until use.
Adherent NCI-N87 cells were washed with D-PBS and detached with Trypsin-EDTA, cell density and viability were then determined in duplicate by Trypan blue exclusion assay using an automated cell counter (LUNA-II™). Cell suspension was diluted to 1×10^5 cells/ml in growth media (RPMI 1640 with Glutamax+10% (v/v) HyClone™ Fetal Bovine Serum) and vortexed before dispensing 2 mL per well into sterile 3 mL polypropylene plates. Warhead dilutions were then dispensed into the appropriate wells at 10 μl/well and mixed by repeat pipetting. […] At the end of the incubation period time (7 days), cell viability was measured by CellTiter 96 ™ aqueous One (MTS) assay, which was dispensed at 20 μl/well and incubated for 4 hours at 37° C., 5% CO2. Plates were then read on an EnVision™ Multi-label Plate Reader (Perkin Elmer) using absorbance at 490 nm.
Cell survival percentage was calculated from the mean absorbance of the 2 replicate wells for each sample, compared to the mean absorbance in the two control wells treated with DMSO only (100%). The IC50 was determined by fitting each data set to sigmoidal dose-response curves with a variable slope using the non-linear curve fit algorithm on the GraphPad Prism software (San Diego, Calif.). […]

For CC[C@@]1(O)C(=O)OCc2c1cc1n(c2=O)Cc2c-1nc1ccc(N)c3c1c2CCC3 [Compound I11, (S)-4-amino-9-ethyl-9-hydroxy-1,2,3,9,12,15-hexahydro-10H,13H-benzo[de]pyrano[3′,4′:6,7]indolizino[1,2-b]quinoline-10,13-dione], the IC50 was 0.385 nM.
